Measurements as given in US12018252B2, “Methods and compositions for identifying neoantigens for use in treating cancer” (Arizona Board of Regents on Behalf of Arizona State …, priority 2019, dated 2024).

How the values were obtained:
[1] = system: 4T1 cells; assay: BALB/C-4T1 mouse breast tumor model: immunization then tumor challenge; type: in vivo; conditions: 4T1-BALB/c
Description: BALB/c and C57BL/6 mice were from Charles River Laboratories or Jackson Laboratories. […] Tumor volumes were measured and calculated by (Length^2×Width/2) daily after the size was larger than 1 mm^3. Breeding pairs of BALB-neuT and FVB-neuN (FVB/N-Tg (MMTVneu) 202Mul) mice were obtained from Joseph Lustgarten, Mayo Clinic Arizona. Mice were monitored weekly for the tumor incidence after tumor size reached 1 mm^3. All experiments were performed in accordance with protocols approved by the Institutional Animal Care and Use Committee of Arizona State University.
The DNA fragments encoding FS peptides were cloned as a C-terminal fusion into the genetic immunization vectors pCMVi-UB (26) and pCMVi-LSrCOMPTT (27, 28) with the Bgl II and Hind III and mixed with 1:1 ratio as the vaccine antigen. Three adjuvants were encoded by genetic immunization vectors. The pCMVi-mGM-CSF vector expresses the adjuvant mouse granulocyte/macrophage colony-stimulating factor (mGM-CSF) under control of the human cytomegalovirus (CMV) promoter (27). […]. Vectors pCMVi-UB, pCMVi-LSrCOMPTT, pCMVi-LTA (also called pCMVi-LS-LTA-R192G) and pCMVi-LTB are available from the PSI:Biology-Materials Repository DNASU (dnasu.org) at Arizona State University. Additional adjuvants were the class A CpG 2216 single-stranded oligodeoxynucleotide obtained from Sigma and alum from Pierce.
Bullets for biolistic genetic immunization used the gold micronanoplex approach and were prepared as described (30) with the following changes. Two grams of 1-micron gold was used. Prior to addition of N-hydroxysuccinimide and N-(3-dimethylaminopropyl)-N′-ethylcarbodiimide hydrochloride, the gold was resuspended in 20 mL of a 0.1 M solution of 2-(N-morpholino) ethanesulfonic acid (MES), pH 6.0. DNA-gold micronanoplexes were prepared by combining, per bullet, 57 μL of cysteamine-gold solution with precipitated DNA (≤10 μg) that had been resuspended in ≤15 μL of water, and then vortexing for 10 min. To the DNA-cysteamine-gold was added […] of a freshly made solution of PEI-micron gold (167 mg/mL in 0.1 M MES, pH 6, without NaCl). The pelleted micronanoplexes were washed with ethanol prior to resuspension in n-butanol ([…]), followed by bullet formation under nitrogen gas.
For the three MS FS experiments, all mice (n=10 per group) were genetically immunized in the ear by Gene Gun at 8 weeks of age (2 shots/mouse, 60 ng pooled antigens plus 0.25 μg LTAB and 2.5 μg CpG2216 as the adjuvant for each shot) and boosted twice (two days apart) in three weeks with 1 μg pooled antigens plus the same adjuvants dosage. All mice were boosted again in two weeks with 50 μg KLH conjugated MS FS peptides with 50 μg CpG 2216 and 50 ul alum in total 100 ul PBS. […]

[2] = system: B16-F10 cells; assay: C57BL/B16-F10 mouse melanoma model: genetic immunization then tumor challenge; type: in vivo; conditions: B16F10-C57BL6; gene gun genetic immunization; compared to mock/control antigen CPV 172; n=10 per group
[3] = gene vaccines three times in two week intervals, 2x10^3 4T1 cells subcutaneous, n=4 per group, vs mock

Row | Sequence | tumor growth [1, 3] | tumor growth (tumor volume) [2] | tumor growth ([1]; gene gun plus KLH-peptide boost, 5x10^3 4T1 cells, n=10 per group) | T cell dependence of protection (CD8 or CD4 T-cell depletion) ([1]; immunized mice depleted with anti CD8 or anti CD4 antibody)
1 | AVLLMCQLYQPWMCKEYYRLL [ZDHHC17, mouse mis-splicing FS antigen, skips exon 16] | did not |  |  | 
2 | IPRMQPQASANHCQLLKVMVA [SLAIN2-FS, mouse mis-splicing FS antigen, skips exon 7] | conferred tumor retardation |  |  | 
3 | TAIIGPNGSGCSGVYCHEEPQGEDSSV [SMC1A 1^4 FS, mouse mis-splicing FS antigen, SMC1A exon 1 joined to exon 4] |  | significant retardation of tumor growth | significantly retarded the 4T1 tumor growth | CD8 T cell dependent
